Our source for the IC50 values is article PMC6222292 (Computational and Structural Biotechnology Journal, 2018).

In the assay the target is T1, soluble epoxide hydrolase (sEH) (Homo sapiens, UniProt P34913).
T1 sequence (P34913 1-555): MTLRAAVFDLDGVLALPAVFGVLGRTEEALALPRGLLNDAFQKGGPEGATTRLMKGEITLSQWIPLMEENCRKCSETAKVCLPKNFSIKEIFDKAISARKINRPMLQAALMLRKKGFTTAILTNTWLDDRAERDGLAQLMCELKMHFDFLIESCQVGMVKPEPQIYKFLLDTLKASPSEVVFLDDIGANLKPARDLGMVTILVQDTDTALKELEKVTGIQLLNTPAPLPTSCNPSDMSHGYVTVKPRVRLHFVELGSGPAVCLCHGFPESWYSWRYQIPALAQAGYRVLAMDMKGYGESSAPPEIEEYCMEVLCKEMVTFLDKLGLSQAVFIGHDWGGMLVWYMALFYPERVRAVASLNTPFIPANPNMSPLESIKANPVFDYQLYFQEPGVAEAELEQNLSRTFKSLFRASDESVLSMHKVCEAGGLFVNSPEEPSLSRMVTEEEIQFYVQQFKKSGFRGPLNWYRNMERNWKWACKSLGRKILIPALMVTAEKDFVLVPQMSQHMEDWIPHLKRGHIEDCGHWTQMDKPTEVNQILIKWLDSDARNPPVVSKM
Nature of the assay: fluorescent PHOME hydrolysis assay. The class given is biochemical.

In the case of `O=C(/C=C/c1ccc(O)cc1)NCCc1ccc(O)cc1` [compound 1, N-trans-coumaroyltyramine], inhibition was half-maximal at 9 ± 0.8 µM (IC50).

As to `COc1cc(/C=C/C(=O)NCCc2ccc(O)cc2)ccc1O` [compound 2, N-trans-feruloyltyramine], half-maximal inhibition (IC50) was put at 10.4 ± 1.1 µM.
